Test results: a compilation of properties of binary mixtures (doi:10.1016/j.molliq.2011.08.008)

Experiment: xn = mol fraction of the nth substance listed
Details: 100 kPa

CCOCCOCCOCCO + CCCC[n+]1ccn(C)c1.F[P-](F)(F)(F)(F)F
speed of sound [m/s]
Details	x2 = 0.0558	x2 = 0.1123	x2 = 0.2121	x2 = 0.3079	x2 = 0.4014	x2 = 0.5002	x2 = 0.6006	x2 = 0.7035	x2 = 0.8015	x2 = 0.9075
288.15 K	–	1474.2	–	1486.2	1487.1	1485	1481.8	1478.4	1469.4	1467.9
293.15 K	1448.3	1457	1466.8	1470.5	1472.2	1470.8	1468.1	–	–	–
298.15 K	1430.9	1440	1450.5	1455	1457.3	–	1454.5	1452.5	1444.6	–
303.15 K	1414.1	1423.2	1434.3	1439.6	1442.5	1442.7	1441.2	1439.1	–	1431.2
308.15 K	1397.3	1406.5	1418.1	1424.2	1427.7	–	1427.8	1426.1	1420.7	1419.5
313.15 K	–	–	1402.2	1409	1413.1	1415	1414.5	1413.5	–	1408
318.15 K	1363.8	1373.6	1386.2	1393.8	1398.8	1401.1	1401.5	1400.7	1397.8	1396.6
